Results reported in patent US8895571B2, “Isoindolinone and pyrrolopyridinone derivatives as Akt inhibitors” (Incyte Corporation, priority 2011, dated 2014).

Legend:
Full length PKA = target: T1, Full length PKA (Homo sapiens, UniProt P17612); assay: PKA in vitro enzymatic assay (HTRF); assay type: biochemical; conditions: 0.035 nM enzyme solution, substrate solution with 5 mM ATP, 25° C. 1 hr
T1 construct: Full length PKA (cat #P2912); purchased Invitrogen P2912
Experimental: Full length PKA (cat #P2912), peptide substrate, fluorescein CREBtide peptide (cat #PV3508), Tb-Crebtide p-S133 Ab (cat #PV3566), and Lanthascreen TR-FRET Dilution Buffer stored (part # PV3574) were purchased from Invitrogen. In general, assay buffer conditions were chosen based on obtaining optimal and linear enzymatic activities. The assay buffer contains 50 mM HEPES, 10 mM MgCl2, 5 mM DTT, 0.005% Tween20 at pH 7.8. Compound stock (0.001 mM) was prepared in DMSO. The compound plate was prepared by 3-fold and 11-point serial dilutions. 0.5 μL of the compound in DMSO was transferred from the compound plate to the assay plate. 0.035 nM enzyme solution was prepared in the assay buffer. Note that the enzyme concentration given is based on the given stock concentration reported by the vendor. 0.1 μM substrate solution was prepared in the assay buffer with addition of 5 mM ATP. 10 μL of the enzyme solution was added to the assay plate and then 10 μL of substrate solution was added to the assay plate. The plate was protected from light and the reaction was incubated at 25° C. for 1 hr. The reaction was stopped by adding 10 μL of a solution containing 30 mM EDTA, and 1.5 nM Tb-Crebtide p-S133 Ab in 1× detection buffer. The plate was incubated for 15-30 min at room temperature and HTRF (homogenous time resolved fluorescence) was measured on a plate reader. Percentage of inhibition was calculated for each concentration and IC50 value was generated from curve fitting. See Table 8 for data related to compounds of the examples.

Full length Akt1 = target: T2, Full length Akt1 (Homo sapiens, UniProt P31749); assay: In vitro Akt kinase enzymatic assay (HTRF), Akt1; assay type: biochemical; conditions: 0.4 nM Akt1, substrate solution with 5 mM ATP, 25° C. 1 hr
T2 construct: Full length Akt1 (cat #P2999); purchased PerkinElmer P2999
T2 sequence (P31749 whole entry): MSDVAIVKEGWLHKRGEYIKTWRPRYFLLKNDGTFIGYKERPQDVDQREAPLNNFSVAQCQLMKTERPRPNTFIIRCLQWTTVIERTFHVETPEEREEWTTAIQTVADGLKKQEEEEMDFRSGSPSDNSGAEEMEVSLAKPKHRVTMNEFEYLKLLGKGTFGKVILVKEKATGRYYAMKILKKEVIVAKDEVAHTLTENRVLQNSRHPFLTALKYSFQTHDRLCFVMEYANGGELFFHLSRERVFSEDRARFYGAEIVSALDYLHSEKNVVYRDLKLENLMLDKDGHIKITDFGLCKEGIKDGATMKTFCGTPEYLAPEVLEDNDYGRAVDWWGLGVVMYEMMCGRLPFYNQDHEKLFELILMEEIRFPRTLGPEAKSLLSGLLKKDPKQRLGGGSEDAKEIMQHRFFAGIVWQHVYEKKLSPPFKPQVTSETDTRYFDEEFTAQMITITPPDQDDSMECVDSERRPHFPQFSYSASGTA
Experimental: (§1) Compounds herein were tested for inhibitory activity of Akt targets according to the following in vitro assay. Full length Akt1 (cat #P2999), Akt2 (cat #PV3184), Akt3 (cat #PV3185), peptide substrate, Ulight-Crosstide (cat #TRF0106-M), Ultra-Europium anti-phospho-Crosstide (cat #TRF-0202-M), and 10×LANCE detection buffer (cat #CR97-100) were purchased from PerkinElmer. In general, assay buffer conditions were chosen based on obtaining optimal enzymatic and linear activities. The assay buffer contains 50 mM HEPES, 10 mM MgCl2, 5 mM DTT, 0.005% Tween20 at pH 7.8. Compound stock (0.001 mM) was prepared in DMSO. The compound plate was prepared by 3-fold and 11-point serial dilutions. 0.5 μL of the compound in DMSO was transferred from the compound plate to the assay plate. Enzyme solution (0.4 nM of Akt1, 0.6 nM of Akt2 or 0.6 nM of Akt3) was prepared in the assay buffer. Note that the enzyme concentration given is based on the given stock concentration reported by the vendor. 0.1 μM substrate solution was prepared in the assay buffer with addition of 5 mM ATP. 10 μL of the enzyme solution was added to the assay plate and then 10 μL of substrate solution was added to the assay plate. The plate was protected from light and the reaction was incubated at 25° C. for 1 hr. The reaction was stopped by adding 10 μL of a solution containing 30 mM EDTA, and 3 nM Ultra Europium anti-phospho Crosstide in 1× detection buffer. The plate was incubated for 15-30 min at room temperature and HTRF (homogenous time resolved fluorescence) was measured on a plate reader. Percentage of inhibition was calculated for each concentration and IC50 value was generated from curve fitting. See Table 8 for data related to compounds of the examples.

[1] = tested on: LNCaP cells (human prostate tumor cell line); assay: Akt LNCaP proliferation assay (MTS); assay type: cell-based; conditions: 2% fetal bovine serum, 48 hours, class symbols
Experimental: LNCaP cells (human prostate tumor cell line) were plated in 96 well plates (COSTAR, Corning, N.Y.) in 50 μL at 10,000 cells/well in RPMI (Media Tech, Manassas, Va.), 2% fetal bovine serum (Hyclone/Thermo, Logan, Utah) and incubated overnight at 37° C., 5% CO2. […] of compound solution were added at final concentrations of 1000 nM to 0.5 nM in 3 fold dilutions for IC50 determination and plates further incubated for 48 hours. 100 μL of Cell Titer 96® Aqueous reagent, from an MTS colorimetric method for determining the number of viable cells in proliferation (Cell titer 96, Promega, Madison, Wis.) was added for 2 hours at 37° C., 5% CO2. Each plate was mixed well and read on a SpectroMax M5 automated plate reader (Molecular Devices, Sunnyvale Calif.). The ability of the compound to inhibit proliferation was reported as the inhibitor concentration required for 50% inhibition (IC50 values) of total cell proliferation. See Table 8 for data related to compounds of the examples.

Full length Akt2 = target: T3, Full length Akt2 (Homo sapiens, UniProt P31751); assay: In vitro Akt kinase enzymatic assay (HTRF), Akt2; assay type: biochemical; conditions: 0.6 nM Akt2, substrate solution with 5 mM ATP, 25° C. 1 hr
T3 construct: Full length Akt1 (cat #P2999), Akt2 (cat #PV3184); purchased PerkinElmer PV3184
T3 sequence (P31751 whole entry): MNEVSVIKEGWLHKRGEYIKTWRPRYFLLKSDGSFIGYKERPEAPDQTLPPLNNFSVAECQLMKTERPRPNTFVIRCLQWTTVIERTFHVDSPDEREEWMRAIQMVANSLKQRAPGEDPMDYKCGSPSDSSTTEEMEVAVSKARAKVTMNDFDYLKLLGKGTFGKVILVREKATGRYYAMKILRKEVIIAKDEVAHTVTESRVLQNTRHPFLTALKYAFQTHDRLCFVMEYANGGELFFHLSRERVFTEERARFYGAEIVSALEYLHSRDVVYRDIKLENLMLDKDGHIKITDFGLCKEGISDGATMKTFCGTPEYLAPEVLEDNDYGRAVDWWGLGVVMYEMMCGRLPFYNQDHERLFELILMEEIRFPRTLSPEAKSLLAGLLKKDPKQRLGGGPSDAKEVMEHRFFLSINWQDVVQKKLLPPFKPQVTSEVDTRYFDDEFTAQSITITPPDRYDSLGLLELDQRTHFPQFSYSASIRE
Experimental: as §1

Full length Akt3 = target: T4, Full length Akt3 (Homo sapiens, UniProt Q9Y243); assay: In vitro Akt kinase enzymatic assay (HTRF), Akt3; assay type: biochemical; conditions: 0.6 nM Akt3, substrate solution with 5 mM ATP, 25° C. 1 hr
T4 construct: Full length Akt1 (cat #P2999), Akt2 (cat #PV3184), Akt3 (cat #PV3185); purchased PerkinElmer PV3185
T4 sequence (Q9Y243 whole entry): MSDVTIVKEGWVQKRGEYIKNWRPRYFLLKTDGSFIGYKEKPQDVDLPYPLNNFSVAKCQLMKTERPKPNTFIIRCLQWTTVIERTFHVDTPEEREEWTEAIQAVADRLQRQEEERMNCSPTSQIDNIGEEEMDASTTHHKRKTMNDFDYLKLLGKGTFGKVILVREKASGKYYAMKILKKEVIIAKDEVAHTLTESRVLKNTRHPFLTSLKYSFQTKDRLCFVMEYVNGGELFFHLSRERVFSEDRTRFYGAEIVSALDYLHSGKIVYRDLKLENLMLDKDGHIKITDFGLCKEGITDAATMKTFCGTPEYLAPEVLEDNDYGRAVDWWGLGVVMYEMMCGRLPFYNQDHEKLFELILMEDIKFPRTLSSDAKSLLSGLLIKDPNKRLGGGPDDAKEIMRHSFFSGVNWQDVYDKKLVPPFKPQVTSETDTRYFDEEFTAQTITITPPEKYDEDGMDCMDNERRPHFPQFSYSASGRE
Experimental: as §1

Compound | IC50 (Full length PKA) [µM] | IC50 (Full length Akt1) [µM] | IC50 [1] [µM] | IC50 (Full length Akt2) [µM] | IC50 (Full length Akt3) [µM]
Cn1ncc(Cl)c1-c1ccc2c(c1)CN([C@H](CN)Cc1ccccc1F)C2=O (stereo in doubt) [Example 60, 2-[2-amino-1-(2-fluorobenzyl)ethyl]-5-(4-chloro-1-methyl-1H-pyrazol-5-yl)isoindolin-1-one] | > 5 | < 0.5 | < 0.5 | < 0.5 | < 0.5
Cn1ncc(Cl)c1-c1ccc2c(c1)CN([C@H](CN)Cc1cccc(C(F)(F)F)c1)C2=O (stereo in doubt) [Example 61, 2-{2-amino-1-[3-(trifluoromethyl)benzyl]ethyl}-5-(4-chloro-1-methyl-1H-pyrazol-5-yl)isoindolin-1-one] | 0.5 to 5 | < 0.5 | 0.5 to 5 | < 0.5 | < 0.5
Cn1ncc(Cl)c1-c1ccc2c(n1)CN([C@H](CN)Cc1cccc(F)c1)C2=O [Example 109, 6-[(1S)-2-amino-1-(3-fluorobenzyl)ethyl]-2-(4-chloro-1-methyl-1H-pyrazol-5-yl)-6,7-dihydro-5H-pyrrolo[3,4-b]pyridin-5-one] | > 5 | < 0.5 |  | 0.5 to 5 | 0.5 to 5
Cn1nccc1-c1ccc2c(n1)CN([C@H](CN)Cc1cccc(F)c1)C2=O [Example 110, 6-[(1S)-2-amino-1-(3-fluorobenzyl)ethyl]-2-(1-methyl-1H-pyrazol-5-yl)-6,7-dihydro-5H-pyrrolo[3,4-b]pyridin-5-one] | > 5 | < 0.5 |  | 0.5 to 5 | 0.5 to 5
Cn1nccc1-c1ccc2c(n1)CN([C@H](CN)Cc1ccccc1)C2=O [Example 111, 6-[(1S)-2-amino-1-benzylethyl]-2-(1-methyl-1H-pyrazol-5-yl)-6,7-dihydro-5H-pyrrolo[3,4-b]pyridin-5-one] | > 5 | 0.5 to 5 |  | 0.5 to 5 | > 5
Cn1ncc(Cl)c1-c1ccc2c(n1)CN([C@H](CN)Cc1ccccc1)C2=O [Example 112, 6-[(1S)-2-amino-1-benzylethyl]-2-(4-chloro-1-methyl-1H-pyrazol-5-yl)-6,7-dihydro-5H-pyrrolo[3,4-b]pyridin-5-one] | > 5 | 0.5 to 5 |  | 0.5 to 5 | 0.5 to 5
Cn1ncc(Cl)c1-c1ncc2c(n1)CN([C@H](CN)Cc1ccccc1)C2=O [Example 113, 6-[(1S)-2-amino-1-benzyl-ethyl]-2-(4-chloro-1-methyl-1H-pyrazol-5-yl)-6,7-dihydro-5H-pyrrolo[3,4-d]pyrimidin-5-one] | > 5 | < 0.5 |  | 0.5 to 5 | 0.5 to 5
CN(C)CC(c1ccccc1)N1Cc2cc(-c3ccnn3C)ccc2C1=O (stereo not drawn) [Example 115] | > 5 | 0.5 to 5 |  | > 5 | > 5
Cn1nccc1-c1ccc2c(c1)CN(C(CN)c1ccc(F)cc1)C2=O (stereo not drawn) [Example 118, 2-[2-amino-1-(4-fluorophenyl)ethyl]-5-(1-methyl-1H-pyrazol-5-yl)isoindolin-1-one] | > 5 | < 0.5 |  | 0.5 to 5 | > 5
COc1cccc(C(CN)N2Cc3cc(-c4ccnn4C)ccc3C2=O)c1 (stereo not drawn) [Example 119, 2-[2-amino-1-(3-methoxyphenyl)ethyl]-5-(1-methyl-1H-pyrazol-5-yl)isoindolin-1-one] | 0.5 to 5 | < 0.5 |  | < 0.5 | 0.5 to 5
COc1ccc(C(CN)N2Cc3cc(-c4ccnn4C)ccc3C2=O)cc1 (stereo not drawn) [Example 120, 2-[2-amino-1-(4-methoxyphenyl)ethyl]-5-(1-methyl-1H-pyrazol-5-yl)isoindolin-1-one] | > 5 | > 5 |  | > 5 | > 5
CN(C)CC(c1ccccc1)N1Cc2cc(-c3c(Cl)cnn3C)ccc2C1=O (stereo not drawn) [Example 121, 5-(4-chloro-1-methyl-1H-pyrazol-5-yl)-2-[2-(dimethyl-amino)-1-phenylethyl]iso-indolin-1-one] | > 5 | > 5 |  | > 5 | > 5
CC(C)OCc1cnn(C)c1-c1ccc2c(c1)CN([C@@H](CN)c1ccccc1)C2=O [Example 122, 2-[(1R)-2-amino-1-phenylethyl]-5-[4-(2-propoxymethyl)-1-methyl-1H-pyrazol-5-yl]iso-indolin-1-one] | > 5 | < 0.5 |  | 0.5 to 5 | 0.5 to 5
Cn1ncc(Cl)c1-c1ccc2c(c1)CN(C(CN)c1cccc(F)c1)C2=O (stereo not drawn) [Example 123, 2-[2-amino-1-(3-fluorophenyl)ethyl]-5-(4-chloro-1-methyl-1H-pyrazol-5-yl)isoindolin-1-one] | 0.5 to 5 | < 0.5 |  | 0.5 to 5 | 0.5 to 5
Cn1ncc(Cl)c1-c1ccc2c(c1)CN(C(CN)c1ccc(F)cc1)C2=O (stereo not drawn) [Example 124, 2-[2-amino-1-(4-fluorophenyl)ethyl]-5-(4-chloro-1-methyl-1H-pyrazol-5-yl)isoindolin-1-one] | > 5 | 0.5 to 5 |  | 0.5 to 5 | 0.5 to 5
COc1cccc(C(CN)N2Cc3cc(-c4c(Cl)cnn4C)ccc3C2=O)c1 (stereo not drawn) [Example 125, 2-[2-amino-1-(3-methoxyphenyl)ethyl]-5-(4-chloro-1-methyl-1H-pyrazol-5-yl)isoindolin-1-one] | > 5 | < 0.5 |  | 0.5 to 5 | 0.5 to 5
COc1ccc(C(CN)N2Cc3cc(-c4c(Cl)cnn4C)ccc3C2=O)cc1 (stereo not drawn) [Example 126, 2-[2-amino-1-(4-methoxyphenyl)ethyl]-5-(4-chloro-1-methyl-1H-pyrazol-5-yl)isoindolin-1-one] | > 5 | > 5 |  | > 5 | > 5
Cn1nccc1-c1ccc2c(c1)CN([C@H](CN)CC1CC1)C2=O [Example 136, 2-[(1S)-2-amino-1-(cyclopropylmethyl)ethyl]-5-(1-methyl-1H-pyrazol-5-yl)isoindolin-1-one] | > 5 | < 0.5 |  | 0.5 to 5 | > 5
Cn1ncc(Cl)c1-c1ccc2c(c1)CN([C@H](CN)CC1CC1)C2=O [Example 137, 2-[(1S)-2-amino-1-(cyclopropylmethyl)ethyl]-5-(4-chloro-1-methyl-1H-pyrazol-5-yl)isoindolin-1-one] | > 5 | 0.5 to 5 |  | 0.5 to 5 | 0.5 to 5
